Source: ChEMBL document CHEMBL5584315, “Evaluation of Phenazine Derivatives from the Lichen-Associated Streptomyces flavidovirens as Potent Antineuroinflammatory Agents In Vitro and In Vivo” (J Nat Prod, 2024)
The source made the active and inactive calls. The rule behind the calls is not given here.

Experiments:
[1] = Cytotoxicity against mouse BV-2 cells assessed as cell viability at 40 uM measured after 24 hrs by MTT assay relative to control; format: toxicity, cell-based; details: read-out: Activity
BV-2 [2] = assay: Antineuroinflammatory activity in LPS induced mouse BV-2 cells assessed as inhibition of NO production pretreated for 3 hrs followed by LPS addition and measured after 21 hrs by griess reagent based assay; format: functional, cell-based
BV-2 [3] = assay: Antineuroinflammatory activity in mouse BV-2 cells assessed as reversal of LPS-induced cell thickening measured after 24 hrs by microscope based analysis; format: functional
BV-2 [4] = assay: Antineuroinflammatory activity in LPS-induced mouse BV-2 cells assessed as reduction in PGE2 cytokine production at 20 uM preincubated for 3 hrs followed by LPS stimulation and measured after 21 hrs by ELISA method relative to control; format: functional; parameters: scale not given: the % may be the effect or the level left; details: time 24 hrs
[5] = Antioxidant activity assessed as ABTS radical scavenging activity by absorbance based analysis; format: functional
BV-2 [6] = assay: Antineuroinflammatory activity in LPS-induced mouse BV-2 cells assessed as suppression of TLR4 expression at 20 uM preincubated for 3 hrs followed by LPS stimulation and measured after 21 hrs by Western blot analysis (reference value: 414+/-14%); format: functional; details: time 24 hrs
BV-2 [7] = assay: Antineuroinflammatory activity in LPS-induced mouse BV-2 cells assessed as downregulation of keap1 expression at 20 uM preincubated for 3 hrs followed by LPS stimulation and measured after 21 hrs by Western blot analysis relative to control; format: functional; details: time 24 hrs
BV-2 [8] = assay: Antineuroinflammatory activity in LPS-induced mouse BV-2 cells assessed as reduction in IL-6 expression at 10 uM preincubated for 3 hrs followed by LPS stimulation and measured after 21 hrs by ELISA method relative to control; format: functional; parameters: scale not given: the % may be the effect or the level left; details: time 24 hrs
BV-2 [9] = assay: Antineuroinflammatory activity in LPS-induced mouse BV-2 cells assessed as upregulation of CAT expression at 20 uM preincubated for 3 hrs followed by LPS stimulation and measured after 21 hrs by Western blot analysis relative to control; format: functional; details: time 24 hrs
BV-2 [10] = assay: Antineuroinflammatory activity in LPS-induced mouse BV-2 cells assessed as reduction in TNF-alpha expression at 10 uM preincubated for 3 hrs followed by LPS stimulation and measured after 21 hrs by ELISA method relative to control; format: functional; parameters: scale not given: the % may be the effect or the level left; details: time 24 hrs
[11] = Inhibition of ROS production in LPS-induced mouse BV-2 cells as decrease in intracellular ROS production at 10 uM preincubated for 3 hrs followed by LPS stimulation and measured after 21 hrs by DCFH-DA staining based microscopic analysis relative to control; format: functional; details: time 24 hrs
BV-2 [12] = assay: Antineuroinflammatory activity in LPS-induced mouse BV-2 cells assessed as decrease in ratio of nuclear p65 to cytoplasmic p65 at 20 uM preincubated for 3 hrs followed by LPS stimulation and measured after 21 hrs by Western blot analysis relative to control; format: functional; parameters: scale not given: the % may be the effect or the level left
BV-2 [13] = assay: Inhibition of ROS production in LPS-induced mouse BV-2 cells as decrease in intracellular ROS production preincubated for 3 hrs followed by LPS stimulation and measured after 21 hrs by DCFH-DA staining based microscopic analysis relative to control; format: functional, cell-based; details: dose 5-20 µM, time 24.0 hrs
BV-2 [14] = assay: Antineuroinflammatory activity in LPS-induced mouse BV-2 cells assessed as suppression of p-IkappaBalpha/IkappaBalpha ratio at 20 uM preincubated for 3 hrs followed by LPS stimulation and measured after 21 hrs by Western blot analysis (reference value: 123+/-8%); format: functional
Danio rerio = organism: Danio rerio; assay: Inhibition of LPS-induced ROS stress in Zebrafish embryo model assessed as reduction in ROS expression by measuring green fluorescence intensity at 15 to 30 uM pretreated for 2 hrs followed by LPS stimulation and measured after 12 hrs by H2DCF-DA staining based fluorescence microscopy analysis; format: functional, organism-based; details: dose 15-30 µM, time 14.0 hrs
BV-2 [15] = assay: Antineuroinflammatory activity in LPS-induced mouse BV-2 cells assessed as reduction in IL-6 expression at 20 uM preincubated for 3 hrs followed by LPS stimulation and measured after 21 hrs by ELISA method relative to control; format: functional; parameters: scale not given: the % may be the effect or the level left; details: time 24 hrs
BV-2 [16] = assay: Antineuroinflammatory activity in LPS-induced mouse BV-2 cells assessed as reduction in PGE2 cytokine production at 10 uM preincubated for 3 hrs followed by LPS stimulation and measured after 21 hrs by ELISA method relative to control; format: functional; parameters: scale not given: the % may be the effect or the level left; details: time 24 hrs
BV-2 [17] = assay: Antineuroinflammatory activity in LPS-induced mouse BV-2 cells assessed as reduction in PGE2 cytokine production at 5 uM preincubated for 3 hrs followed by LPS stimulation and measured after 21 hrs by ELISA method relative to control; format: functional; parameters: scale not given: the % may be the effect or the level left; details: time 24 hrs
BV-2 [18] = assay: Antineuroinflammatory activity in LPS-induced mouse BV-2 cells assessed as suppression of COX-2 expression at 20 uM preincubated for 3 hrs followed by LPS stimulation and measured after 21 hrs by Western blot analysis (reference value: 172 +/-9%); format: functional; details: time 24 hrs
[19] = Antioxidant activity assessed as DPPH radical scavenging activity by absorbance based analysis; format: functional
BV-2 [20] = assay: Antineuroinflammatory activity in LPS induced mouse BV-2 cells assessed as inhibition of NO production at 20 uM pretreated for 3 hrs followed by LPS addition and measured after 21 hrs by griess reagent based assay relative to control; format: functional; parameters: scale not given: the % may be the effect or the level left; details: time 24 hrs
BV-2 [21] = assay: Antineuroinflammatory activity in LPS-induced mouse BV-2 cells assessed as upregulation of Nrf2 expression at 20 uM preincubated for 3 hrs followed by LPS stimulation and measured after 21 hrs by Western blot analysis relative to control; format: functional; details: time 24 hrs
[22] = Inhibition of ROS production in LPS-induced mouse BV-2 cells as decrease in intracellular ROS production at 5 uM preincubated for 3 hrs followed by LPS stimulation and measured after 21 hrs by DCFH-DA staining based microscopic analysis relative to control; format: functional; details: time 24 hrs
BV-2 [23] = assay: Antineuroinflammatory activity in LPS-induced mouse BV-2 cells assessed as suppression of iNOS expression at 20 uM preincubated for 3 hrs followed by LPS stimulation and measured after 21 hrs by Western blot analysis (reference value: 524 +/-15%); format: functional; details: time 24 hrs
BV-2 [24] = assay: Antineuroinflammatory activity in LPS-induced mouse BV-2 cells assessed as suppression of TAK1 expression at 20 uM preincubated for 3 hrs followed by LPS stimulation and measured after 21 hrs by Western blot analysis (reference value: 225+/-10%); format: functional; details: time 24 hrs
BV-2 [25] = assay: Antineuroinflammatory activity in LPS-induced mouse BV-2 cells assessed as reduction in TNF-alpha expression at 5 uM preincubated for 3 hrs followed by LPS stimulation and measured after 21 hrs by ELISA method relative to control; format: functional; parameters: scale not given: the % may be the effect or the level left; details: time 24 hrs
BV-2 [26] = assay: Antineuroinflammatory activity in mouse BV-2 cells assessed as reversal of LPS-induced cell shortening measured after 24 hrs by microscope based analysis; format: functional
BV-2 [27] = assay: Antineuroinflammatory activity in mouse BV-2 cells assessed as reversal of LPS-induced enlarged cell bodies measured after 24 hrs by microscope based analysis; format: functional
BV-2 [28] = assay: Antineuroinflammatory activity in LPS-induced mouse BV-2 cells assessed as reduction in IL-6 expression at 5 uM preincubated for 3 hrs followed by LPS stimulation and measured after 21 hrs by ELISA method relative to control; format: functional; parameters: scale not given: the % may be the effect or the level left; details: time 24 hrs
BV-2 [29] = assay: Antineuroinflammatory activity in LPS-induced mouse BV-2 cells assessed as upregulation of HO-1 expression at 20 uM preincubated for 3 hrs followed by LPS stimulation and measured after 21 hrs by Western blot analysis relative to control; format: functional; details: time 24 hrs
BV-2 [30] = assay: Antineuroinflammatory activity in LPS-induced mouse BV-2 cells assessed as reduction in TNF-alpha expression at 20 uM preincubated for 3 hrs followed by LPS stimulation and measured after 21 hrs by ELISA method relative to control; format: functional; parameters: scale not given: the % may be the effect or the level left; details: time 24 hrs
[31] = Inhibition of ROS production in LPS-induced mouse BV-2 cells as decrease in intracellular ROS production at 20 uM preincubated for 3 hrs followed by LPS stimulation and measured after 21 hrs by DCFH-DA staining based microscopic analysis relative to control; format: functional; details: time 24 hrs
BV-2 [32] = assay: Cytotoxicity against mouse BV-2 cells assessed as cell viability at 40 uM measured after 24 hrs by MTT assay; format: toxicity, cell-based; details: bv-2, 24 h

For `O=C(O)c1ccc[nH]1`, the viability at 24 h, 40 µM [1] was > 98% and the IC50 (BV-2 [2]) was 19.5 µM.

With `CC(=O)NCC(=O)c1c[nH]c2ccccc12` the viability at 24 h, 40 µM [1] was > 98% and the IC50 (BV-2 [2]) was > 20 µM.

In the case of `COC(=O)c1cccc2nc3ccccc3nc12`, the viability at 24 h, 40 µM [1] is reported as > 98% and the IC50 (BV-2 [2]) is reported as 8.6 µM.

For `CC(=O)NCCC(=O)Nc1cccs1`, the viability at 24 h, 40 µM [1] was > 98% and the IC50 (BV-2 [2]) was 17.4 µM.

For `CC(=O)NCCc1c[nH]c2ccccc12` [NB-ACETYLTRYPTAMINE], the viability at 24 h, 40 µM [1] was > 98% and the IC50 (BV-2 [2]) was > 20 µM.

For `CSc1nc(NC/C=C(/C)CO)c2ncn([C@@H]3O[C@H](COC(C)=O)[C@@H](O)[C@H]3O)c2n1`, the viability at 24 h, 40 µM [1] was > 98% and the IC50 (BV-2 [2]) was > 20 µM.

In the case of `COC(=O)[C@H](C)[C@@H](O)c1cccc2nc3c(C(=O)O)cccc3nc12`, the Activity (BV-2 [3]) is reported as “Dose-Dependent Effect”, the Activity (BV-2 [4]) is reported as 62% and the EC50 [5] is reported as 900 µM. For the same molecule, the Activity (BV-2 [6]) was 73%, the Activity (BV-2 [7]) was 36% and the Activity (BV-2 [8]) was 38%. For the same molecule, the Activity (BV-2 [9]) was 10%, the Activity (BV-2 [10]) was 33% and the inhibition at 10 µM [11] was 30%. For the same molecule, the Activity (BV-2 [12]) was 60%, the inhibition (BV-2 [13]) was “Dose-Dependent Effect” and the Activity (BV-2 [14]) was 36%. The viability at 24 h, 40 µM [1] was > 98%, the inhibition (Danio rerio) was “Active” and the Activity (BV-2 [15]) was 49%. It also gave an Activity (BV-2 [16]) of 47%, an Activity (BV-2 [17]) of 34% and an Activity (BV-2 [18]) of 105%. For the same molecule, the EC50 [19] was 1900 µM, the Activity (BV-2 [20]) was 70% and the Activity (BV-2 [21]) was 67%. For the same molecule, the inhibition at 5 µM [22] was 8%, the Activity (BV-2 [23]) was 303% and the Activity (BV-2 [24]) was 38%. The Activity (BV-2 [25]) was 10%, the Activity (BV-2 [26]) was “Dose-Dependent Effect” and the Activity (BV-2 [27]) was “Dose-Dependent Effect”. For the same molecule, the Activity (BV-2 [28]) was 20%, the Activity (BV-2 [29]) was 54% and the Activity (BV-2 [30]) was 47%. It also gave an inhibition at 20 µM [31] of 66% and an IC50 (BV-2 [2]) of 8 µM.

For `O=C1N[C@@H](Cc2c[nH]c3ccccc23)C(=O)N2CCC[C@@H]12` [BREVIANAMIDE F], the viability at 24 h, 40 µM [1] was > 98% and the IC50 (BV-2 [2]) was > 20 µM.

With `COC(=O)c1cccc2nc3c([C@@H](C)O)cccc3nc12` the viability at 24 h, 40 µM [1] was > 98% and the IC50 (BV-2 [2]) was 8.5 µM.

For `COC(=O)c1cccc2nc3c([C@H](OC(=O)c4ccc(Br)cc4)[C@@H](C)C(=O)OC)cccc3nc12`, the Activity (BV-2 [32]) was “Toxic”.

In the case of `COC(=O)c1cccc2nc3c([C@H](O)[C@H](C)C(=O)OC)cccc3nc12`, the viability at 24 h, 40 µM [1] is reported as > 98% and the IC50 (BV-2 [2]) is reported as 8.2 µM.
